Measured values taken from US20240368566A1, “PYK2-DERIVED PEPTIDES FOR INHIBITING INVADOPODIA-MEDIATED CANCER METASTASIS” (BAR-ILAN UNIVERSITY, priority 2023, published 2024).
Where no end group is shown, it is not given here.

How the values were obtained:
4T1 cells = assay: Spontaneous lung metastasis clonogenic assay in 4T1 xenograft mouse model; format: in vivo, BALB/c female mice; details: 10 mg/kg once a day for eight days, intraperitoneal injection, HIV-TAT fused peptide; versus scrambled control
Procedure: All experimental procedures were conducted following the Federation of Laboratory Animal Science Association (FELSA) and were approved by the Bar-Ilan University animal use and care committee. Mouse xenograft tumors were generated by injecting 10^6 4T1 cells resuspended in 20% collagen I (BD Biosciences, Franklin Lakes, NJ, USA) in PBS into the lower-left mammary gland of 8-week-old BALB/c female mice. […] 4T1 cells have intrinsic resistance to 6-thioguanine, which enables precise quantification of metastatic cells, even when they are disseminated at sub-microscopic levels at distant organs, upon excision and digestion of selected organs. The clonogenic assay is based on a principle by which one colony represents one metastatic cell. Briefly, spontaneous lung metastasis was measured in BALB/c mice bearing orthotopic 4T1 tumors of equal size (1-1.2 cm in diameter). Lungs were excised and minced and plated in RPMI/10% FBS in the presence of 6-thioguanine to select for tumor cells only. Cells were plated in a 5% CO2 incubator at 37° C. for 14 days to form 4T1 colonies. On day 14 after plating, the medium was removed from dishes, and colonies were fixed in 4% paraformaldehyde for one hour at room temperature. Colonies were then stained in 2% crystal violet solution and thoroughly washed with PBS. Plates were allowed to air dry, and colonies in each plate were quantified. […]

MDA-MB-231 cells [1] = assay: ECM degradation assay; format: cell-based, human; details: 24 h on fluorescent fibronectin/gelatin matrix; compared to control peptide
Procedure: The in vitro matrix degradation assay was performed as described in Genna et al., 2018 (supra). Briefly, MatTek dishes were treated with 2.5% gelatin/2.5% sucrose, cross-linked with 0.5% glutaraldehyde, treated with 10 μg/ml of fluorescently labeled fibronectin (Alexa 568; Invitrogen, Thermo Fischer Scientific), and then with 1 mg/ml NaBH4 in PBS. 125,000 cells were plated on the fibronectin/gelatin matrix in Pyk2-PRR or control peptides and allowed to degrade for 24 h. Cells were then fixed in 3.7% paraformaldehyde, and random fields were imaged using an inverted fluorescent microscope (Leica AF6000; 40×, NA 1.3, oil objective). ECM degradation was analyzed by quantifying the average degraded area in pixels per field using ImageJ.

MDA-MB-231 cells [2] = assay: Invadopodium precursor formation assay; format: cell-based, human; details: 4 h, 0.1, 1 or 5 μM peptide
Procedure: The invadopodium precursor formation assay was performed as described in Genna et al., 2018 (supra). Briefly, gelatin was conjugated to Alexa 405 dye (Thermo Fisher Scientific). MatTek dishes were treated with 1 N HCl and coated with 50 μg/ml poly-L-lysine. A 0.2% gelatin solution was prepared in PBS, and a 1:20 mixture of Alexa 405-labeled gelatin/unlabeled gelatin was warmed to 37° C. before addition to the poly-L-lysine coated plates. Gelatin was cross-linked with 0.01% glutaraldehyde followed by quenching with 5 mg/ml sodium borohydride. 125,000 MDA-MB-231 cells were plated on Alexa 405-labeled gelatin plates in the presence of 0.1, 1, or 5 μM of Pyk2-PRR peptides or scrambled control for 4 h. At the end of incubation, cells were fixed in 3.7% paraformaldehyde, permeabilized with 0.1% Triton X-100, blocked with 1% FBS, 1% BSA in PBS, and labeled with anti-Tks5 and anti-cortactin. Images were acquired using an inverted fluorescent microscope (Leica AF6000; 63×, NA 1.4, oil objective, Leica LAS AF acquisition software) (Wetzlar, Germany) equipped with an ORCA-Flash 4.0 V2 digital CMOS camera (Hamamatsu Photonics, Shizuoka, Japan).

[3] = test system: interaction between Pyk2 and cortactin in invadopodia; assay: Acceptor photobleaching FRET assay; format: cell-based, human; details: 0.1, 1, 5 μM peptide; mature matrix-degrading invadopodia
Procedure: Acceptor photobleaching experiments were performed as described in Genna et al., 2018 (supra). In brief, cortactin-TagRFP MDA-MB-231 cells were plated on Alexa 405 gelatin in a medium containing Pyk2-PRR or scrambled control peptides at 0.1, 1, and 5 μM concentration, fixed, and immunostained with pY402-Pyk2/Alexa Fluor 488-goat anti-rabbit (donor) and cortactin/Alexa Fluor 555-goat anti-mouse (acceptor). As a control, cells were stained with Tks5/Alexa Fluor 488-goat anti-rabbit (donor) and cortactin/Alexa Fluor 555-goat anti-mouse (acceptor). Co-localization of cortactin with degradation holes in Alexa 405-labeled gelatin was used to identify mature degrading invadopodia. For all FRET experiments, cells were imaged in PBS at room temperature on a laser-scanning inverted confocal microscope (Zeiss LSM780; 60×, NA 1.4, oil objective). A region of interest surrounding invadopodia was bleached using 100% 561-nm laser power (acceptor channel), and images were acquired in both the 488 nm and the 561 nm channels before and after bleaching. FRET efficiency was calculated as the E=1−(donor pre/donor post) in background-subtracted images and was corrected for fluctuations in laser power and donor bleaching in ImageJ.

[4] = target: T1, cortactin-SH3 domain (mouse cortactin SH3 domain, GenBank ID U03184; nucleotides 1468-1641) (mouse, UniProt Q60598 490-546, isotopically labeled (15N, 13C and/or 2H) for NMR); assay: NMR chemical shift titration (1H,15N-HSQC), unlabeled peptide into 15N-SH3
T1 construct: domain: SH3 domain; also called purified cortactin-SH3

[5] = target: T1, cortactin-SH3 domain (mouse cortactin …); assay: NMR chemical shift titration

T1 sequence (Q60598 490-546 limits assumed, one chain of several): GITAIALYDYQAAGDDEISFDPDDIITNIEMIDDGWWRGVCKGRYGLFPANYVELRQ

Molecule: TAFQEPAPKASQAQYRPPP [Pyk2 super-mutant, TAFQEPAPKASQAQYRPPP]
- lung metastases (6-thioguanine-resistant colonies) (4T1 cells): no significant differences in colony number
- matrix degradation (degradation area) (MDA-MB-231 cells [1]): small but significant reduction
- mature, matrix-degrading invadopodia (MDA-MB-231 cells [2]; co-localization with degradation regions): small but significant reduction
- immature invadopodium precursors (MDA-MB-231 cells [2]; cortactin and Tks5 co-localization): no significant effect
- interaction between Pyk2 and cortactin in invadopodia (FRET) [3]: does not significantly inhibit

B1: Pyk2-PRR2 peptide (SEQ ID NO: 1) (peptide)
peptide: TAFQEPPPKPSRPKYRPPP
notes: Unlabeled synthetic peptide as used in the NMR experiments; Positions count on UniProt Q14289
- Kd [4]: 40 µM
- fold higher affinity than Pyk2-PRR3 [5]: 16 fold
